Series [1] has as its system B16-F10. Briefly: Antitumor activity against mouse B16F10 cells […] in C57BL/6 mouse assessed as reduction of tumor size at 100 ug administered as intratumorally for 3 days. It counts as functional, cell-based.
A short description of series [2]: Prodrug activation mediated by mushroom tyrosinase assessed as 5,6-dihydroxy-1H-indazol-1-yl 4-[bis-(2-chloroethyl)amino]benzoate formation up to 120 mins by UV-Vis spectroscopy. The following applies: agaricus bisporus, 2 h.
Series [3] in a line: Prodrug activation mediated by mushroom tyrosinase assessed as 4-[bis-(2-chloroethyl) amino]benzoic cid formation up to 120 mins by TLC, HPLC or MS analysis. Conditions: agaricus bisporus, 2 h.
Series [4] in a line: Prodrug activation mediated by mushroom tyrosinase assessed as N-{4-[bis-(2-chloroethyl)amino]benzoyl}-N''-(4-hydroxybenzylidene)hydrazine formation up to 120 mins by TLC, HPLC or MS analysis. Conditions: agaricus bisporus, 2 h.
The next series deals with NIH3T3. The series is described as follows: Cytotoxicity against mouse NIH/3T3 cells at 250 uM after 24 to 48 hrs by MTT assay. It is filed as cell-based. Conditions: nih3t3, 250 µM. On the technique in general: Tetrazolium dyes change colour on reduction, which living cells bring about.
The test system of series [5] is B16-F10. The series is described as follows: Cytotoxicity against mouse B16F10 cells at 250 uM after 24 to 48 hrs by MTT assay. It is filed as functional, cell-based.
Series [6] can be described thus: Cytotoxicity against mouse HECa10 cells at 250 uM after 24 to 48 hrs by MTT assay. It counts as cell-based.

Each structure is given as a SMILES string. Active and inactive are the calls of the source. The rule behind the calls is not given here.

Consider `N[C@@H](Cc1ccc(N(CCCl)CCCl)cc1)C(=O)O`, for which the result in the series with B16-F10 [1] was Active.

Regarding `O=C(NNCc1ccc(O)cc1)c1ccc(N(CCCl)CCCl)cc1`, the Drug metabolism result in series [2] is listed as “Active”; in series [3], “Not Active”; in series [4] it was “Active”. Also, the Activity entry (in the series on NIH3T3; in series [6]) was “Toxic” each time. In addition, the result with B16-F10 [5] and in the series with B16-F10 [1] was Active.

(Values after ChEMBL document CHEMBL3098120, “Synthesis and analysis of activity of a potential anti-melanoma prodrug with a hydrazine linker” (Eur J Med Chem, 2014).)
